The test system of data set [1] is agalactic mares. Description: Preparation for parturition, udder development and lactation in agalactic mares.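 Also: treated mares were free of fescue toxicosis.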 The format is in vivo.
The test system of data set [2] is quarter horse mares. The experiment in a line: Daily feed intake of mares. The format is in vivo. The text has this:
Ten quarter horse mares were housed in individual pens and fed a standard feed concentrate weighing 0.5% of each mares' initial body weight at approximately 8:00 A.M. each day during the study. In addition, hay was fed to the mare ad libitum each day. During the night, the mares were placed in a dry lot having no access to food.

The subject of data set [3] is mares. Description: Stimulation of follicular growth and ovulation in mares out of season.
Data set [4] deals with animals. The following applies: animals exposed to other D2 receptor antagonists; cited from earlier work.
The mark [5] stands for this setting: individual agalactic mares, 1.1 mg/kg per day orally, 1.1 mg/kg/day.
The mark [6] stands for this setting: individual mares, domperidone .55 mg/kg orally daily in molasses, January and February.

Several values for one entry are separate records, joined by “and”; a condition that tells them apart may be missing. Equal values may be shown once. Entries after “also recorded” stand apart in the source; their conditions may differ.

With `O=c1[nH]c2ccccc2n1CCCN1CCC(n2c(=O)[nH]c3cc(Cl)ccc32)CC1` [domperidone], the Milk production entry in data set [1] (horses, orally about 0.2 mg/kg to about 3.3 mg/kg of body weight) is given as “stimulated”. The “Did Mare Have A Live Foal?” value in data set [1] (individual agalactic mares, 1.1 mg/kg per day orally) is “Yes”. In addition, in data set [1] (setting [5]), the “Days Before (−) or After Expected Foaling that Mare Foaled” value is −1 Days and +8 Days and +15 Days and +14 Days and 0 Days and −3 Days (2×) and +3 Days and −2 Days and +12 Days; the “Mare's Udder Development After Treatment Began” value was “Increased Weekly; also recorded: Developed Adequately; also recorded: Very Slight; also recorded: Gradual Development; also recorded: Normal Development; also recorded: No Response; also recorded: Immediate; also recorded: Dripping Milk 5th Day”; the “Was Mare Lactating Normally After Foaling?” value is “Yes (11×) and No. but drug”. In addition, the Adverse side effects entry in data set [1] (subcutaneous, amounts greater than 1.32 mg/kg) is “without any adverse side effects”. In data set [2] (each of the ten mares, 1.1 mg/kg orally daily), the “Daily hay consumption after treatment began” value is “increased”. The “Avg. Hay Consumption After Treatment” value in data set [2] (individual mares, 1.1 mg/kg orally daily for two weeks, hay ad libitum, 1.1 mg/kg) is 13.0 lbs and 12.2 lbs and 14.1 lbs (2×) and 13.2 lbs and 14.2 lbs and 12.3 lbs and 13.5 lbs and 15.0 lbs and 12.1 lbs. Besides, in data set [3] (0.55 mg/kg orally daily, only two of nine control mares ovulated), the “Mares treated that ovulated” value was “nine of the ten”. Moreover, in data set [3] (setting [6]), the “Date of Ovulation” value is reported as “Feb. 9; also recorded: Feb. 6; also recorded: Feb. 12; also recorded: Feb. 8; also recorded: Feb. 15; also recorded: Feb. 5; also recorded: Feb. 7; also recorded: Feb. 13; also recorded: d/n ovulate; also recorded: Feb. 10”; the “No. of Days of Treatment Before Ovulation” value is 18 Days (2×) and 21 Days and 17 Days and 24 Days and 14 Days and 16 Days and 22 Days and d/n ovulate and 19 Days. In addition, the Neurological side effects result in data set [3] (mares, 0.55 mg/kg orally daily, during the study) is recorded as “No neurological side effects were observed”.

As for `CCN(CC)CCNC(=O)c1cc(Cl)c(N)cc1OC` [metoclopramide], in data set [4], the Neuroleptic side effects result was “neuroleptic side effects have been observed”.

For `CCN1CCCC1CNC(=O)c1cc(S(N)(=O)=O)ccc1OC` (centres unmarked) [sulpiride], the Neuroleptic side effects result in data set [4] is “neuroleptic side effects have been observed”.

(Values after patent US6455546B2, “Method for promoting ovulation, parturition, and lactation in mammals” (Clemson University, priority 1996, dated 2002).)
